Data published in patent publication US20240139185A1, “COMPOUNDS THAT PARTICIPATE IN COOPERATIVE BINDING AND USES THEREOF” (Revolution Medicines, Inc., priority 2018, published 2024).

Tests used:
cyclophilin A (CYPA) = cyclophilin A (CYPA) (Homo sapiens, UniProt P62937); assay: CYPA-compound binary complex formation by SPR; details: read-out: CYPA Binding Affinity
In short: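 CypA-Avi captured on a Biotin CAPture chip (4 μg/ml), reference flow cell subtracted. Compounds injected as 10-point 2-fold dilutions from 50 μM in HBS-P+ pH7.4 with 2% DMSO; 60 s association and 60 s dissociation, solvent-corrected. Affinity obtained by steady-state fitting.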

[1] = molecular target: T1, BRAF-GTP-KRAS-G12C complex (Homo sapiens, UniProt P01116+P62937, G12C); assay: KRAS-BRAF complex disruption through competition with CYPA-compound by TR-FRET; details: biochemical BRAF-KRAS G12C-GTP disruption assay EC50, with CYPA
T1 construct: 50 nM of His6-KRas G12C-GTP (1-169); 500 nM of tagless CypA (1-165)
In short: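 His6-KRAS G12C-GTP (1-169, 50 nM) with tagless CypA (1-165, 500 nM) was incubated with compound for 3 h at room temperature in pH 7.3 Hepes/NaCl/MgCl2 buffer containing GST-BRAF RBD. Anti-His Eu (10 nM) and anti-GST APC (50 nM) were then added for 1.5 h, and the 665/615 nm TR-FRET ratio was read. EC50 from 4-parameter fit; for specificity, wild-type KRAS replaced G12C, and CypA was omitted to test presenter dependence.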

pERK in H358 cells = assay: pERK inhibition in H358 cells; assay type: cell-based, human; details: 4 hours treatment, read-out: Cellular pERK inhibition
In short: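 Human lung cancer H358 cells in RPMI/10% FBS were exposed to compound or DMSO for 4 h. Fixed and permeabilized cells were stained overnight at 4 C with anti-phospho-ERK1/2 (Thr202/Tyr204). Near-infrared imaging read the pERK signal at 800 nm, with DRAQ5 at 700 nm.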

Compound	Kd (cyclophilin A (CYPA))	EC50 [1]	IC50 (pERK in H358 cells)
Cc1cc2ccc3cc2n1CC(C)(C)COC(=O)[C@@H]1CCCN(N1)C(=O)[C@@H](NC(=O)[C@H](C(C)C)N(C)C(=O)C1CN(C(=O)CCl)C1)Cc1cc(O)cc-3c1 [Compound 103]	> 15 µM	≤ 0.5 µM	1 to 10 µM
CC(C)[C@@H](C(=O)N[C@H]1Cc2cc(O)cc(c2)-c2ccc3c(Cl)cn(c3c2)CC(C)(C)COC(=O)[C@@H]2CCCN(N2)C1=O)N(C)C(=O)C1CN(C(=O)CCl)C1 [Compound 104]	> 15 µM	≤ 0.5 µM	≤ 1 µM
Cc1c(C#N)c2ccc3cc2n1CC(C)(C)COC(=O)[C@@H]1CCCN(N1)C(=O)[C@@H](NC(=O)[C@H](C(C)C)N(C)C(=O)C1CN(C(=O)CCl)C1)Cc1cc(O)cc-3c1 [Compound 106]	5 to 15 µM	≤ 0.5 µM	1 to 10 µM
CNC(=O)c1cn2c3cc(ccc13)-c1cc(O)cc(c1)C[C@H](NC(=O)[C@H](C(C)C)N(C)C(=O)C1CN(C(=O)CCl)C1)C(=O)N1CCC[C@H](N1)C(=O)OCC(C)(C)C2 [Compound 108]	5 to 15 µM	≤ 0.5 µM	> 10 µM
CC(C)C(C(=O)NC1Cc2cc(O)cc(c2)-c2ccc3c(C(=O)N(C)C)cn(c3c2)CC(C)(C)COC(=O)C2CCCN(N2)C1=O)N(C)C(=O)C1CN(C(=O)CCl)C1 (stereo not drawn) [Compound 109]	> 15 µM	≤ 0.5 µM	> 10 µM
CNC(=O)c1cc2ccc3cc2n1CC(C)COC(=O)C1CCCN(N1)C(=O)C(NC(=O)C(C(C)C)N(C)C(=O)C1CN(C(=O)CCl)C1)Cc1cc(O)cc-3c1 (stereo not drawn) [Compound 115]	≤ 5 µM	≤ 0.5 µM	> 10 µM
CC(C)[C@@H](C(=O)N[C@H]1Cc2cc(O)cc(c2)-c2ccc3c(C4CC4)cn(c3c2)C[C@H](C)COC(=O)[C@@H]2CCCN(N2)C1=O)N(C)C(=O)C1CN(C(=O)CCl)C1 [Compound 117]	5 to 15 µM	≤ 0.5 µM	≤ 1 µM
CC(C)[C@@H](C(=O)N[C@H]1Cc2cc(O)cc(c2)-c2ccc3c(C4CCC4)cn(c3c2)C[C@H](C)COC(=O)[C@@H]2CCCN(N2)C1=O)N(C)C(=O)C1CN(C(=O)CCl)C1 [Compound 118]	> 15 µM	≤ 0.5 µM	1 to 10 µM
CC(C)[C@@H](C(=O)N[C@H]1Cc2cc(O)cc(c2)-c2ccc3ncn(c3c2)CC(C)(C)COC(=O)[C@@H]2CCCN(N2)C1=O)N(C)C(=O)C1CN(C(=O)CCl)C1 [Compound 139]	5 to 15 µM	≤ 0.5 µM	> 10 µM
COCc1nc2ccc3cc2n1CC(C)(C)COC(=O)[C@@H]1CCCN(N1)C(=O)[C@@H](NC(=O)[C@H](C(C)C)N(C)C(=O)C1CN(C(=O)CCl)C1)Cc1cc(O)cc-3c1 [Compound 143]	5 to 15 µM	≤ 0.5 µM	> 10 µM
Cc1nc2ccc3cc2n1C[C@H](C)COC(=O)[C@@H]1CCCN(N1)C(=O)[C@@H](NC(=O)[C@H](C(C)C)N(C)C(=O)C1CN(C(=O)CCl)C1)Cc1cc(O)cc-3c1 [Compound 147]	≤ 5 µM	≤ 0.5 µM	> 10 µM
Cc1nc2ccc3cc2n1CC1(CC1)COC(=O)[C@@H]1CCCN(N1)C(=O)[C@@H](NC(=O)[C@H](C(C)C)N(C)C(=O)C1CN(C(=O)CCl)C1)Cc1cc(O)cc-3c1 [Compound 151]	5 to 15 µM	≤ 0.5 µM	> 10 µM
C=CS(=O)(=O)N1CCN([C@H](C(=O)N[C@H]2Cc3cc(O)cc(c3)-c3ccc4nc(C)n(c4c3)CC(C)(C)COC(=O)[C@@H]3CCCN(N3)C2=O)C(C)C)C1=O [Compound 152]	5 to 15 µM	≤ 0.5 µM	1 to 10 µM
CC(C)[C@@H](C(=O)N[C@H]1Cc2cc(O)cc(c2)-c2cc3c(ccc(C#N)c3s2)OCCCOC(=O)[C@@H]2CCCN(N2)C1=O)N(C)C(=O)C1CN(C(=O)CCl)C1 [Compound 172]	5 to 15 µM	0.5 to 5 µM	> 10 µM
CC(C)[C@@H](C(=O)N[C@H]1Cc2cc(O)cc(c2)-c2ccc3nnn(c3c2)CC(C)(C)COC(=O)[C@@H]2CCCN(N2)C1=O)N(C)C(=O)C1CN(C(=O)CCl)C1 [Compound 175]	5 to 15 µM	≤ 0.5 µM	> 10 µM
CC(C)[C@@H](C(=O)N[C@H]1Cc2cc(O)cc(c2)-c2ccc3c(C#N)cn(c3n2)CC(C)(C)COC(=O)[C@@H]2CCCN(N2)C1=O)N(C)C(=O)C1CN(C(=O)CCl)C1 [Compound 176]	5 to 15 µM	≤ 0.5 µM	1 to 10 µM
CC(C)[C@@H](C(=O)N[C@H]1Cc2cc(O)cc(c2)-c2ccc3c(c2)N(CC(C)(C)COC(=O)[C@@H]2CCCN(N2)C1=O)C(=O)C3)N(C)C(=O)C1CN(C(=O)CCl)C1 [Compound 177]	5 to 15 µM	≤ 0.5 µM	1 to 10 µM

Compound	Kd (cyclophilin A (CYPA))	EC50 [1]	IC50 (pERK in H358 cells)
CC(C)[C@@H](C(=O)N[C@H]1Cc2cc(O)cc(c2)-c2cc3c(ccn3CC(C)(C)COC(=O)[C@@H]3CCCN(N3)C1=O)cn2)N(C)C(=O)C1CN(C(=O)CCl)C1 [Compound 178]	5 to 15 µM	0.5 to 5 µM	> 10 µM
CC(C)[C@@H](C(=O)N[C@H]1Cc2cc(O)cc(c2)-c2ccc3c(C#N)ccc(c3c2)OCCCOC(=O)[C@@H]2CCCN(N2)C1=O)N(C)C(=O)C1CN(C(=O)CCl)C1 [Compound 185]	≤ 5 µM	0.5 to 5 µM	> 10 µM
CCN1CCC(=O)N2C[C@H](C)COC(=O)[C@@H]3CCCN(N3)C(=O)[C@@H](NC(=O)[C@H](C(C)C)N(C)C(=O)C3CN(C(=O)CCl)C3)Cc3cc(O)cc(c3)-c3ccc1c2c3 [Compound 186]	5 to 15 µM	> 5 µM	> 10 µM
CCN1CCCN2C[C@H](C)COC(=O)[C@@H]3CCCN(N3)C(=O)[C@@H](NC(=O)[C@H](C(C)C)N(C)C(=O)C3CN(C(=O)CCl)C3)Cc3cc(O)cc(c3)-c3ccc1c2c3 [Compound 187]	5 to 15 µM	> 5 µM	> 10 µM
CCN1C(=O)CCN2C[C@H](C)COC(=O)[C@@H]3CCCN(N3)C(=O)[C@@H](NC(=O)[C@H](C(C)C)N(C)C(=O)C3CN(C(=O)CCl)C3)Cc3cc(O)cc(c3)-c3ccc1c2c3 [Compound 188]	≤ 5 µM	> 5 µM	> 10 µM
CC(C)[C@@H](C(=O)N[C@H]1Cc2cc(O)cc(c2)-c2ccc3c(c2)n(c(=O)n3C)CC(C)(C)COC(=O)[C@@H]2CCCN(N2)C1=O)N(C)C(=O)C1CN(C(=O)CCl)C1 [Compound 189]	≤ 5 µM	≤ 0.5 µM	≤ 1 µM
CC#CC(=O)N1CC(C(=O)N(C)[C@H](C(=O)N[C@H]2Cc3cc(O)cc(c3)-c3ccc4c(c3)n(c(=O)n4C)CC(C)(C)COC(=O)[C@@H]3CCCN(N3)C2=O)C(C)C)C1 [Compound 190]	≤ 5 µM	0.5 to 5 µM	> 10 µM
C=CC(=O)N1CCN([C@H](C(=O)N[C@H]2Cc3cc(O)cc(c3)-c3ccc4cnn(c4c3)CC(C)(C)COC(=O)[C@@H]3CCCN(N3)C2=O)C(C)C)C1=O [Compound 199]	5 to 15 µM	0.5 to 5 µM	> 10 µM
C=CC(=O)N1CCN([C@H](C(=O)N[C@H]2Cc3cc(O)cc(c3)-c3ccc4c(Cl)nn(c4c3)CC(C)(C)COC(=O)[C@@H]3CCCN(N3)C2=O)C(C)C)C1=O [Compound 200]	> 15 µM	≤ 0.5 µM	> 10 µM
CC(C)[C@@H](C(=O)N[C@H]1Cc2cc(O)cc(c2)-c2ccc3c(Cl)nn(c3c2)CC(C)(C)COC(=O)[C@@H]2CCCN(N2)C1=O)N(C)C(=O)C1CN(C(=O)CCl)C1 [Compound 201]	> 15 µM	≤ 0.5 µM	≤ 1 µM
CC(C)[C@@H](C(=O)N[C@H]1Cc2cc(O)cc(c2)-c2ccc3c(C(F)F)nn(c3c2)C[C@H](C)COC(=O)[C@@H]2CCCN(N2)C1=O)N(C)C(=O)C1CN(C(=O)CCl)C1 [Compound 202]	≤ 5 µM	≤ 0.5 µM	1 to 10 µM
C=CC(=O)N1CCC1C(=O)N(C)C(C(=O)NC1Cc2cc(O)cc(c2)-c2ccc3c(C(F)F)nn(c3c2)CC(C)COC(=O)C2CCCN(N2)C1=O)C(C)C (stereo not drawn) [Compound 203]	> 15 µM	> 5 µM	> 10 µM
C=CC(=O)N1CCC1C(=O)N(C)C(C(=O)NC1Cc2cc(O)cc(c2)-c2ccc3c(C(F)F)nn(c3c2)CC(C)COC(=O)C2CCCN(N2)C1=O)C(C)C (stereo not drawn) [Compound 204]	5 to 15 µM	> 5 µM	1 to 10 µM
C=CC(=O)N1CCCC1C(=O)N(C)C(C(=O)NC1Cc2cc(O)cc(c2)-c2ccc3c(C(F)F)nn(c3c2)CC(C)COC(=O)C2CCCN(N2)C1=O)C(C)C (stereo not drawn) [Compound 205]	> 15 µM	> 5 µM	> 10 µM
CC(C)[C@@H](C(=O)N[C@H]1Cc2cc(O)cc(c2)-c2ccc3c(-c4ccnn4C)cn(c3c2)CC(C)(C)COC(=O)[C@@H]2CCCN(N2)C1=O)N(C)C(=O)C1CN(C(=O)CCl)C1 [Compound 239]	≤ 5 µM	≤ 0.5 µM	1 to 10 µM
Cc1cnn(C)c1-c1cn2c3cc(ccc13)-c1cc(O)cc(c1)C[C@H](NC(=O)[C@H](C(C)C)N(C)C(=O)C1CN(C(=O)CCl)C1)C(=O)N1CCC[C@H](N1)C(=O)OCC(C)(C)C2 [Compound 240]	5 to 15 µM	≤ 0.5 µM	1 to 10 µM
